Tested on: retinal ganglion cell neurons (RGCs)
Test: Rat chronic IOP (circumlimbal suture) glaucoma model
Format: in vivo
Text: A method for reliably inducing sustained IOPs in the rodent eye was recently developed by Liu et al (55, 56). In this minimally invasive approach, a circumlimbal suture is placed to induce chronic ocular hypertension. An advantage of this strategy is that specific IOPs can be targeted and monitored by rebound tonometry, improving the consistency of results. In addition, following suturing elevated IOPs can be maintained for as long as 15 weeks (55). The model reproduces key features of glaucoma, such as; progressive and preferential decline in RGC function starting by week 8, gradual loss of the retinal nerve fiber layer (RNFL) by week 12, and RGC death by week 15, with minimal overt inflammation (55, 57). In the experiments, circumlimbal sutures were placed in the randomized right or left eyes of anesthetized rats using a sterile 8-0 nylon suture. IOP was measured twice a week, and only animals showing sustained elevated IOP over 21 mmHg for the duration of the experiment were included in the analyses. The delivery and dosage of LXB4 was based on previous publications (58-60). Briefly, LXB4 or vehicle were administered starting from week 8 on alternate days. Due to the unstable nature of lipoxins, a hybrid approach was taken to ensure consistent delivery, including both IP delivery (1 μg) and topically to each eye (100 ng). ERG was measured monthly to assess RGC functional changes using the positive scotopic threshold response (pSTR), which has been used to measure the impact of elevated chronic IOP in rats (55, 61). In addition, RNFL and total retinal thickness were quantified once a month using optical coherence tomography (OCT). After 15 weeks, animals were euthanized and RGC numbers were counted on middle and peripheral quadrants of retinal flatmounts following immunofluorescent staining for the RGC marker BRN3a as above.
Therapeutic LXB4 treatment rescues RGC function in a chronic IOP dependent glaucoma model. To assess whether LXB4 action extends beyond acute stress models, it was investigated if it provides RGC protection in a chronic model more relevant to human neurodegenerative disease. For this purpose a recently described rat perilimbal suture model of glaucoma was used, in which moderately elevated intraocular pressure (IOP) can be consistently maintained over 15 weeks (55, 57). Elevated IOP is the primary clinical glaucoma risk factor, and this model results in similar compromised RGC function, reduced nerve fiber layer (NFL) thickness, and death of RGCs by week 15 (55). […] Therefore, this time point was chosen to initiate an experiment in which therapeutic treatment with LXB4 or vehicle was administered to sutured rats starting at week 8, with longitudinal and pathological assessment of RGC function and survival (FIG. 6A).
LXB4 or vehicle treatment of sutured rats was initiated after 8 weeks of elevated IOP, and was delivered on alternate days until week 15. A control group was treated with vehicle only. Additionally, for each rat increased IOP was induced in the unilaterally, with the contralateral eye serving as control. IOP was monitored twice weekly throughout the experiment. As functional and structural endpoints, electroretinograms (ERG) and optical coherence tomography (OCT) were measured at week 0 (before placing the suture), and on weeks 4, 8, and 12, and 15 of elevated IOP.
In vehicle eyes there were 35% and 30% fewer BRN3a positive RGCs in sutured eyes compared to contralateral controls in the […], respectively (FIG. 7A-FIG. 7B).

CCCCC[C@H](O)[C@H](O)/C=C/C=C/C=C\C=C\[C@@H](O)CCCC(=O)O [LXB4, 5S,14R,15S-trihydroxy-6E,8Z,10E,12E-eicosatetraenoic acid]
RGC function, positive scotopic threshold response (pSTR, ERG) (IP 1 μg and topical 100 ng on alternate days from week 8 to 15, by week 12, vs vehicle): significant recovery
IOP levels compared to vehicle treated group (measured twice weekly throughout): did not differ
a-wave (photoreceptor) and b-wave (bipolar cell) ERG signals (treatment week 8 to 15): no LXB4 effects
total retinal thickness (OCT) (treatment week 8 to 15): not affected
RNFL thickness loss (OCT) (treatment week 8 to 15, by week 15, vs vehicle): partially rescued
BRN3a positive RGCs on retinal flatmounts, inner and outer retina (week 15, vs vehicle): significant rescue of RGCs
